Measured values as given in patent US20080300221A1, “Contact Lens Care Composition” (priority 2005, published 2008).

Tests used:
cysts of A. castellani = test: Susceptibility test for Acanthamoeba cysts (viable cells on non-nutrient agar plates after soaking in contact lens solution); assay type: cell-based, A. castellanii; parameters: key: +: viable cells; −: no viable cells; conditions: after 8 hours soaking; 10^3 cysts; plates incubated at 30° C. for 14 days; Miltefosine alone tested at 80 μM
Experimental: The activity of various multi-purpose contact lens solutions (for cleaning, rinsing, storing and disinfecting a contact lens while the lens is not worn) was tested against cysts of A. castellani.
Contact lens disinfection solutions tested (Table 1) were purchased from local retail stores. In case of the H2O2 based systems, neutralization of the 3% hydrogen peroxide is achieved within 6 hours by a catalytic platinum disk which is located in the contact lens storage case according to the manufacturer's instructions. Miltefosine was dissolved in 5% Ethanol (2 mM stock solution) and tested at 80 μM in Acanthamoeba medium (PYG) or in contact lens disinfection medium.
A. castellanii, was isolated from a patient suffering from a severe Acanthamoeba keratitis. Isolation was achieved by inoculating corneal epithelium onto non-nutrient agar plates covered with a 48-h-old culture of Escherichia coli. The isolate was cloned by transferring a single cyst onto a fresh plate with a micromanipulator. Axenisation was achieved by harvesting cysts from parallel cultures and incubating them in 3% HCl overnight in order to eliminate coexisting bacteria. […] The cysts were harvested by centrifugation (500 g/7 minutes), resuspended in sterile 0.9% NaCl and counted in a BurkerTurk haemocytometer. […]

Acanthamoeba = conditions: cited from earlier work

| SMILES | Viable Acanthamoeba cells after disinfection with commercially available disinfectants (cysts of A. castellani) | Effectiveness against Acanthamoeba among contact lens disinfectants (Acanthamoeba) |
| --- | --- | --- |
| CCCCCCCCCCCCCCCCOP(=O)([O-])OCC[N+](C)(C)C [Miltefosine, 1-hexadecylphosphorylcholine] | − |  |
| [H]/N=C(\N/C(=N/[H])NCCCCCCNC(=N)NC(=N)Nc1ccc(Cl)cc1)Nc1ccc(Cl)cc1 [chlorhexidine] |  | most effective |
